Reference: article PMC2994877, “A Full Pharmacological Analysis of the Three Turkey β-Adrenoceptors and Comparison with the Human β-Adrenoceptors” (PLoS ONE, 2010)
Where two headings read alike, the source gives them in different places.

Assays:
[1] = target: T1, turkey β4C-adrenoceptor (tβ4C) (Meleagris gallopavo, UniProt P43141); experiment: cell-based; assay type: binding
T1 construct: expressed in transfected cells

[2] = target: T2, turkey β3C-adrenoceptor (tβ3C) (Meleagris gallopavo, UniProt A0A803YLI8); experiment: 3H-CGP12177 whole cell binding, CHO tβ3C cells
T2 sequence (A0A803YLI8 entry or part of it): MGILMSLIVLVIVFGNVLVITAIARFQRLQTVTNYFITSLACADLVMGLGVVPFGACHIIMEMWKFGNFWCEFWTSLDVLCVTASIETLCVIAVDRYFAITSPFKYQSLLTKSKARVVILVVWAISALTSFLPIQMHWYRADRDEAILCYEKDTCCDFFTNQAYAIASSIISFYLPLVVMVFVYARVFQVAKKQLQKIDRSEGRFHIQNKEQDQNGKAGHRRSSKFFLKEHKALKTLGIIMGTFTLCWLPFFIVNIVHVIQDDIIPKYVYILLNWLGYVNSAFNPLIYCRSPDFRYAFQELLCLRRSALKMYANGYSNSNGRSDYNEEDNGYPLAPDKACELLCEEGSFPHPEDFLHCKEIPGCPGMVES

Human β3-adrenoceptor = details: Human β3, given for comparison; ref 25 and 30; cited from earlier work
Human β2-adrenoceptor = target: Human β2-adrenoceptor; set-up: method as in PMID 15655528, PMID 20590599; details: Human β2, given for comparison; ref 25 and 30; cited from earlier work
[3] = target: T1, turkey β4C-adrenoceptor (tβ4C); experiment: cell-based; assay type: cell-based; details: for % isop max: CRE-SPAP, % of 10 µM isoprenaline maximum
[4] = target: T2, turkey β3C-adrenoceptor (tβ3C); experiment: CRE-SPAP production, CHO tβ3C cells; assay type: cell-based; details: for Emax: read-out: % isop max
Human β1-adrenoceptor = target: Human β1-adrenoceptor; set-up: method as in PMID 15655528, PMID 20590599; details: Human β1, given for comparison; ref 25 and 30; cited from earlier work
[5] = competition with 3H-CGP12177, whole cells, CHO tβ4C, given as log KD, mean ± s.e.m., read-out: Log KD (converted)
[6] = competition with 3H-CGP12177, whole cells, CHO tβ3C, given as log KD, mean ± s.e.m., read-out: Log KD (converted)
[7] = competition with 3H-CGP12177, whole cells, CHO tβ4C, given as log KD, mean ± s.e.m.
[8] = competition with 3H-CGP12177, whole cells, CHO tβ3C, given as log KD, mean ± s.e.m.

T1 sequence (P43141 whole entry): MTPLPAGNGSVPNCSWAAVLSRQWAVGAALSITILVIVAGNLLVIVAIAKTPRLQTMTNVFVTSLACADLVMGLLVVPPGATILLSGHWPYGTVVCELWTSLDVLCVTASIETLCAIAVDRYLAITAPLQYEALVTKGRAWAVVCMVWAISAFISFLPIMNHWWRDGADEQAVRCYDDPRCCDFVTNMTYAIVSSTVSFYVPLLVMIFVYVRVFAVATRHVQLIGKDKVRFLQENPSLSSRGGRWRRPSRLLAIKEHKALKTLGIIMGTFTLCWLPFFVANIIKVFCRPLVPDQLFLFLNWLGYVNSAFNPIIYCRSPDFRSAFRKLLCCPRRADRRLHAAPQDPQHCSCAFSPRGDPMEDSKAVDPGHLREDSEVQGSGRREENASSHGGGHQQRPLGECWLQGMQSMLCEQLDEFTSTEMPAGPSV

## CC(C)NCC(O)COc1cccc2[nH]ccc12 (stereo not drawn) [Pindolol]
[1]; [5]
  Kd: 5.25 nM
[2]
  Kd: 1.95 nM

## CC(C)NCC(O)c1ccc(NS(C)(=O)=O)cc1 (stereo not drawn) [Sotalol]
Human β3-adrenoceptor
  Log KD: −5.05
[1]; [5]
  Kd: 692 nM
[2]; [6]
  Kd: 537 nM

## CC(C)(C)NCC(O)c1ccccc1Cl (stereo not drawn) [Tulobuterol]
Human β2-adrenoceptor
  Log KD: −6.83
Human β3-adrenoceptor
  Log KD: −4.72
[1]; [5]
  Kd: 3470 nM
[2]
  Kd: 229 nM

## O=C(O)COc1ccc(OCCNC[C@H](O)COc2ccccc2)cc1 [ICI215001]
Human β3-adrenoceptor
  Log KD: −6.63
[1]; [7]
  Log KD: −6.55±0.06
[2]; [8]
  Log KD: −5.31±0.09

## CC(C)(C)NCC(O)c1cc(O)cc(O)c1 (stereo not drawn) [Terbutaline]
[1]; [5]
  Kd: 33900 nM
[2]
  Kd: 2400 nM

## CC(C)NCC(O)c1ccc(O)c(O)c1 (stereo not drawn) [Isoprenaline]
Human β3-adrenoceptor
  Log KD: −5.52
[2]
  Kd: 316 nM
[3]; CHO tβ4C cells
  % isop max: 100%
[3]; tβ4C
  CRE-SPAP gene transcription response: 2.47±0.10 fold over basal
[4]
  EC50: 26.9 nM
[4]; CRE-SPAP, % of 10 µM isoprenaline maximum, CHO tβ3C cells
  % isop max: 100%

## CC(CCc1ccccc1)NCC(O)c1ccc(O)c(C(N)=O)c1 (stereo not drawn) [Labetolol]
Human β3-adrenoceptor
  Log KD: −6.18
[1]; [7]
  Log KD: −7.70±0.04
[2]; [8]
  Log KD: −7.42±0.04

## CC(CCc1ccc(O)cc1)NCC(O)c1ccc(O)cc1 (stereo not drawn) [Ractopamine]
Human β3-adrenoceptor
  Log KD: −5.82
[1]; [5]
  Kd: 269 nM
Human β1-adrenoceptor
  Log KD: −6.97
[2]
  Kd: 224 nM

## COc1ccc(CC(C)NCC(O)c2ccc(O)c(NC=O)c2)cc1 (stereo not drawn) [Formoterol]
Human β3-adrenoceptor
  Log KD: −5.82
[1]
  Kd: 20 nM
[2]
  Kd: 11 nM
[3]
  EC50: 0.166 nM
[4]
  EC50: 0.0447 nM

## CCCC(=O)Nc1ccc(OCC(O)CNC(C)C)c(C(C)=O)c1 (stereo not drawn) [Acebutolol]
[1]; [5]
  Kd: 3890 nM
[2]; [6]
  Kd: 4070 nM

## CC(C)NCC(O)COc1ccc(CCOCC2CC2)cc1 (stereo not drawn) [Betaxalol]
Human β3-adrenoceptor
  Log KD: −5.97
[1]; [5]
  Kd: 575 nM

## CC(C)(C)NCC(O)c1ccc(O)c(CO)c1 (stereo not drawn) [Salbutamol]
[1]; [5]
  Kd: 4370 nM
[2]
  Kd: 724 nM
[3]; CRE-SPAP production, CHO tβ4C cells, read-out: Log EC50 (converted)
  EC50: 42.7 nM
[3]; CHO tβ4C cells
  % isop max: 99.9±2.3%
[4]; CRE-SPAP production, CHO tβ3C cells, read-out: Log EC50 (converted)
  EC50: 3.55 nM
[4]
  Emax: 102 ± 3.1%

## CC(C)NCC(O)COc1ccc(CC(N)=O)cc1 (stereo not drawn) [Atenolol]
[1]; [5]
  Kd: 17400 nM
[2]; [6]
  Kd: 17800 nM

## CC(C)NCC(O)COc1cccc2[nH]c3ccccc3c12 (stereo not drawn) [Carazolol]
Human β3-adrenoceptor
  Log KD: −8.35
[1]; [5]
  Kd: 0.0537 nM
[2]; [6]
  Kd: 0.012 nM

## CC(C)NCC(O)COc1ccc(COCCOC(C)C)cc1 (stereo not drawn) [Bisoprolol]
[1]; [5]
  Kd: 550 nM
[2]; [6]
  Kd: 2630 nM

## O=C(NCCNCC(O)COc1ccc(O)cc1)N1CCOCC1 (stereo not drawn) [Xamoterol]
[1]
  Kd: 589 nM
[2]
  Kd: 2290 nM

## OC(CNCC(O)C1CCc2cc(F)ccc2O1)C1CCc2cc(F)ccc2O1 (stereo not drawn) [Nebivolol]
Human β2-adrenoceptor
  Log KD: −7.92
Human β3-adrenoceptor
  Log KD: −7.04
[1]; [5]
  Kd: 1.48 nM
[2]; [6]
  Kd: 16.6 nM

## C=CCc1ccccc1OCC(O)CNC(C)C (stereo not drawn) [Alprenolol]
Human β3-adrenoceptor
  Log KD: −6.93
[1]; [5]
  Kd: 14.1 nM
[2]
  Kd: 3.63 nM

## Cc1ccc(Cl)c(OCC(O)CNC(C)(C)C)c1 (stereo not drawn) [Bupranolol]
Human β3-adrenoceptor
  Log KD: −7.04
[1]; [5]
  Kd: 6.61 nM
Human β1-adrenoceptor
  Log KD: −8.51
[2]; [6]
  Kd: 0.851 nM

## CCc1ccccc1OC[C@@H](O)CN[C@H]1CCCc2ccccc21.O=C(O)C(=O)O [SR59230A, 3-(2-Ethylphenoxy)-1-[(1,S)-1,2,3,4-tetrahydronapth-1-ylamino]-2S-2-propanol oxalate]
Human β2-adrenoceptor
  Log KD: −8.45
Human β3-adrenoceptor
  Log KD: −7.37
[1]; [7]
  Log KD: −7.65±0.06
[2]; [8]
  Log KD: −7.96±0.08

## COc1ccccc1OCCNCC(O)COc1cccc2[nH]c3ccccc3c12 (stereo not drawn) [Carvedilol]
[1]; [5]
  Kd: 0.123 nM

## COc1ccc(CCNC[C@H](O)c2ccc(O)cc2)cc1OC [Denopamine]
Human β2-adrenoceptor
  Log KD: −5.83
Human β3-adrenoceptor
  Log KD: −5.30
[1]; [5]
  Kd: 1120 nM
[2]; [6]
  Kd: 2340 nM

## OCc1cc(C(O)CNCCCCCCOCCCCc2ccccc2)ccc1O (stereo not drawn) [Salmeterol]
Human β3-adrenoceptor
  Log KD: −6.33
[1]
  Kd: 81.3 nM
[2]
  Kd: 3.16 nM
[3]
  EC50: 3.98 nM
[3]; CHO tβ4C cells
  % isop max: 102.5±2.8%
[4]
  EC50: 0.0372 nM
  Emax: 96 ± 5.7%

## CC(C)OC(=O)c1cc2c(OCC(O)CNC(C)(C)C)cccc2[nH]1 (stereo not drawn) [SDZ21009]
Human β2-adrenoceptor
  Log KD: −10.28
Human β3-adrenoceptor
  Log KD: −7.10
[1]; [7]
  Log KD: −9.06±0.07
[2]; [8]
  Log KD: −10.17±0.08

## Cn1cc(C(F)(F)F)nc1-c1ccc(OCC(O)CNCCOc2ccc(O)c(C(N)=O)c2)cc1 (stereo not drawn) [CGP20712A]
[2]
  Kd: 3980 nM
[4]; Log KD CGP20712A, vs agonist BRL37344, CRE-SPAP, CHO tβ3C cells
  Kd: 3090 nM
[4]; Log KD CGP20712A, vs agonist CGP12177, CRE-SPAP, CHO tβ3C cells
  Kd: 2690 nM
[4]; Log KD CGP20712A, vs agonist adrenaline, CRE-SPAP, CHO tβ3C cells
  Kd: 4570 nM
[4]; Log KD CGP20712A, vs agonist cimaterol, CRE-SPAP, CHO tβ3C cells
  Kd: 3470 nM
[4]; Log KD CGP20712A, vs agonist clenbuterol, CRE-SPAP, CHO tβ3C cells
  Kd: 1780 nM
[4]; Log KD CGP20712A, vs agonist dobutamine, CRE-SPAP, CHO tβ3C cells
  Kd: 7410 nM
[4]; Log KD CGP20712A, vs agonist fenoterol, CRE-SPAP, CHO tβ3C cells
  Kd: 2450 nM
[4]; Log KD CGP20712A, vs agonist formoterol, CRE-SPAP, CHO tβ3C cells
  Kd: 3630 nM
[4]; Log KD CGP20712A, vs agonist isoprenaline, CRE-SPAP, CHO tβ3C cells
  Kd: 3720 nM
[4]; Log KD CGP20712A, vs agonist noradrenaline, CRE-SPAP, CHO tβ3C cells
  Kd: 5250 nM
[4]; Log KD CGP20712A, vs agonist salbutamol, CRE-SPAP, CHO tβ3C cells
  Kd: 3240 nM
[4]; Log KD CGP20712A, vs agonist salmeterol, CRE-SPAP, CHO tβ3C cells
  Kd: 6310 nM

## COCCNC(=O)COc1ccc(OCCNC[C@H](O)COc2ccccc2)cc1 [ZD7114]
Human β2-adrenoceptor
  Log KD: −7.31
Human β3-adrenoceptor
  Log KD: −6.78
[1]; [7]
  Log KD: −7.59±0.04
[2]; [8]
  Log KD: −6.59±0.10

## CC(C)NCC(O)c1ccc(N)c(C#N)c1 (stereo not drawn) [Cimaterol]
Human β2-adrenoceptor
  Log KD: −7.26
Human β3-adrenoceptor
  Log KD: −5.28
[3]; CHO tβ4C cells
  % isop max: 98.2±2.3%
[4]
  Emax: 103 ± 2.2%

## Cc1ccc(OCC(O)C(C)NC(C)C)c2c1CCC2 (stereo not drawn) [ICI118551]
[2]
  Kd: 1.17 nM
[4]; Log KD ICI118551, vs agonist BRL37344, CRE-SPAP, CHO tβ3C cells
  Kd: 0.49 nM
[4]; Log KD ICI118551, vs agonist CGP12177, CRE-SPAP, CHO tβ3C cells
  Kd: 0.316 nM
[4]; Log KD ICI118551, vs agonist adrenaline, CRE-SPAP, CHO tβ3C cells
  Kd: 1.62 nM
[4]; Log KD ICI118551, vs agonist cimaterol, CRE-SPAP, CHO tβ3C cells
  Kd: 0.398 nM
[4]; Log KD ICI118551, vs agonist clenbuterol, CRE-SPAP, CHO tβ3C cells
  Kd: 0.339 nM
[4]; Log KD ICI118551, vs agonist dobutamine, CRE-SPAP, CHO tβ3C cells
  Kd: 1.15 nM
[4]; Log KD ICI118551, vs agonist fenoterol, CRE-SPAP, CHO tβ3C cells
  Kd: 0.457 nM
[4]; Log KD ICI118551, vs agonist formoterol, CRE-SPAP, CHO tβ3C cells
  Kd: 0.513 nM
[4]; Log KD ICI118551, vs agonist isoprenaline, CRE-SPAP, CHO tβ3C cells
  Kd: 2.51 nM
[4]; Log KD ICI118551, vs agonist noradrenaline, CRE-SPAP, CHO tβ3C cells
  Kd: 1.38 nM
[4]; Log KD ICI118551, vs agonist salbutamol, CRE-SPAP, CHO tβ3C cells
  Kd: 0.49 nM
[4]; Log KD ICI118551, vs agonist salmeterol, CRE-SPAP, CHO tβ3C cells
  Kd: 0.617 nM

## COCCc1ccc(OCC(O)CNC(C)C)cc1 (stereo not drawn) [Metoprolol]
[1]
  Kd: 1660 nM
[2]
  Kd: 1100 nM

## CC(C)(C)NC[C@H](O)COc1nsnc1N1CCOCC1 [Timolol]
Human β3-adrenoceptor
  Log KD: −6.80
[1]; [5]
  Kd: 2 nM
